In ChEMBL document CHEMBL1799930, “Novel nanomolar imidazo[4,5-b]pyridines as selective nitric oxide synthase (iNOS) inhibitors: SAR and structural insights” (Bioorg Med Chem Lett, 2011):
Calls of active or inactive are those of the source. The rule behind the calls is not given here.

Columns and labels:
Nitric oxide synthase 3 = molecular target: T1, Nitric oxide synthase 3 (Homo sapiens, UniProt P29474); test: Inhibition of human eNOS assessed as inhibition of [3H]L-arginine to [3H]L-citrulline conversion by scintillation counting
T1 sequence (P29474 whole entry): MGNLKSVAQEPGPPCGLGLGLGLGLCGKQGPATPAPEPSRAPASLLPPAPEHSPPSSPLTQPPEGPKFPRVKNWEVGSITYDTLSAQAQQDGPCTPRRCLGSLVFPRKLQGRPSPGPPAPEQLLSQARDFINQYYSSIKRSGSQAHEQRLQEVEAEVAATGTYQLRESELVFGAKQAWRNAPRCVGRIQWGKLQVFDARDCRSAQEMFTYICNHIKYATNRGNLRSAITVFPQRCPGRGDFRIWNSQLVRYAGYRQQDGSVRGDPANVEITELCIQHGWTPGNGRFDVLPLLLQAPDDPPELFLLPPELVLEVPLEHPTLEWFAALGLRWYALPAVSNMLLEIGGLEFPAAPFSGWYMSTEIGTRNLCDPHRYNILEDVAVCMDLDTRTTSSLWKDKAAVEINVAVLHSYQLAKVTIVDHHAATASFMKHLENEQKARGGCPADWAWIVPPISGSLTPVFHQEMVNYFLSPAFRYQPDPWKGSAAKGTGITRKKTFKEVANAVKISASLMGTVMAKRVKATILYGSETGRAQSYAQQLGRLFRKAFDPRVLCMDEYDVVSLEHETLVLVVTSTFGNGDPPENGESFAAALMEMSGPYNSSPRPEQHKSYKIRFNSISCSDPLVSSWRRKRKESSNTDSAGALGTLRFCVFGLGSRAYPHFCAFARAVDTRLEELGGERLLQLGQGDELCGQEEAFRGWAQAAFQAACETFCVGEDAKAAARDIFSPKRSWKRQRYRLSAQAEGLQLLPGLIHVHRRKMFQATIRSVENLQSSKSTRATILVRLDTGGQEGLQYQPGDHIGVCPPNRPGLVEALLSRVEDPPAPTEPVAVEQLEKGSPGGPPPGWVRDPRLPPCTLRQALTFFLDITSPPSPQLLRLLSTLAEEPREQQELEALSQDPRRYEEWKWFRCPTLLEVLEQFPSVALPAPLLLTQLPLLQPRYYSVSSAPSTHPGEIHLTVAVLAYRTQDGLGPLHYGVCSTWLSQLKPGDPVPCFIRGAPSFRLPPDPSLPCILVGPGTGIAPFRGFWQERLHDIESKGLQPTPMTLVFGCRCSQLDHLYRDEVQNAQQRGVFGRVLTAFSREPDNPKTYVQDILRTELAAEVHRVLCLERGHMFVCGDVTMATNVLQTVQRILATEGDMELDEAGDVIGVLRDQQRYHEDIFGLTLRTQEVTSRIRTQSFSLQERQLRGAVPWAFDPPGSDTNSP

Nitric oxide synthase 1 = Nitric oxide synthase 1 (Homo sapiens, UniProt P29475); test: Inhibition of human nNOS assessed as inhibition of [3H]L-arginine to [3H]L-citrulline conversion by scintillation counting
[1] = molecular target: Nitric oxide synthase, inducible (Homo sapiens, UniProt P35228); test: Inhibition of human iNOS assessed as inhibition of [3H]L-arginine to [3H]L-citrulline conversion by scintillation counting
[2] = Inhibition of CYP; assay type: ADME
[3] = molecular target: T2, Nitric oxide synthase, inducible (Mus musculus) (UniProt P29477); test: Binding affinity to mouse iNOSox L-arginine binding site by X-ray crystallography
T2 sequence (whole entry): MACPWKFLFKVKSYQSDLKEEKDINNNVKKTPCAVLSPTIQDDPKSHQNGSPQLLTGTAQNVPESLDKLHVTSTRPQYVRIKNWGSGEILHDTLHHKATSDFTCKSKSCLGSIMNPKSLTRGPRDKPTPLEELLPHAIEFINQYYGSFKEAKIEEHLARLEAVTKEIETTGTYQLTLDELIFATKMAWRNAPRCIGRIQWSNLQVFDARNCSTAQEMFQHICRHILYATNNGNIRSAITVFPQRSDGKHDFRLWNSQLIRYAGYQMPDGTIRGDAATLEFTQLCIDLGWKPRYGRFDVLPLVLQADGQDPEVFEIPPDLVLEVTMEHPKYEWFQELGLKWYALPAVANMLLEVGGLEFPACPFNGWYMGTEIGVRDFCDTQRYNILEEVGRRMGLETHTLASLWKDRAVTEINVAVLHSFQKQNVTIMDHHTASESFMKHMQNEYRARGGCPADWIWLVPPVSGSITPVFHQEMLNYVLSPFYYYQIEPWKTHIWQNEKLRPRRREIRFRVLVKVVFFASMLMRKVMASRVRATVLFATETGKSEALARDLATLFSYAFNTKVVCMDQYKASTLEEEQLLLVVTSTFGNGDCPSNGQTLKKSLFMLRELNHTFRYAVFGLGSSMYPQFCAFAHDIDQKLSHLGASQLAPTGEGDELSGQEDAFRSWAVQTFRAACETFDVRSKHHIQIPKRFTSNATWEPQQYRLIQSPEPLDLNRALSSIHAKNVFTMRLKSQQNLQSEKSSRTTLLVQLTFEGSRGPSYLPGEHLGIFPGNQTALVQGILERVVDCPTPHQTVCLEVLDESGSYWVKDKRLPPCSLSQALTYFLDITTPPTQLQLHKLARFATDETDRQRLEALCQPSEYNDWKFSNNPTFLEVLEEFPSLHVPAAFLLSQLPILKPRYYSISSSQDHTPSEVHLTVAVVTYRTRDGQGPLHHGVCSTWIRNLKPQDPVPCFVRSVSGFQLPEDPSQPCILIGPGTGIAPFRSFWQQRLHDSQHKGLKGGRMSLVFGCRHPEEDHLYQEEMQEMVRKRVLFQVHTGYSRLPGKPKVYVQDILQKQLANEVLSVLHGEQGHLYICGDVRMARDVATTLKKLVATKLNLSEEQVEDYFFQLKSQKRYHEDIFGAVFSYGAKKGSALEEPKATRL

Cytochrome P450 2C9 = Cytochrome P450 2C9 (Homo sapiens, UniProt P11712); test: Inhibition of CYP2C9; assay type: ADME
[4] = Absolute oral bioavailability in rat; assay type: ADME, organism-based; conditions: in vivo
[5] = Cmax in rat; assay type: ADME, organism-based; conditions: in vivo
[6] = Clearance in rat; assay type: ADME, organism-based; conditions: in vivo

Chain of Nitric oxide synthase, inducible (P35228 whole entry): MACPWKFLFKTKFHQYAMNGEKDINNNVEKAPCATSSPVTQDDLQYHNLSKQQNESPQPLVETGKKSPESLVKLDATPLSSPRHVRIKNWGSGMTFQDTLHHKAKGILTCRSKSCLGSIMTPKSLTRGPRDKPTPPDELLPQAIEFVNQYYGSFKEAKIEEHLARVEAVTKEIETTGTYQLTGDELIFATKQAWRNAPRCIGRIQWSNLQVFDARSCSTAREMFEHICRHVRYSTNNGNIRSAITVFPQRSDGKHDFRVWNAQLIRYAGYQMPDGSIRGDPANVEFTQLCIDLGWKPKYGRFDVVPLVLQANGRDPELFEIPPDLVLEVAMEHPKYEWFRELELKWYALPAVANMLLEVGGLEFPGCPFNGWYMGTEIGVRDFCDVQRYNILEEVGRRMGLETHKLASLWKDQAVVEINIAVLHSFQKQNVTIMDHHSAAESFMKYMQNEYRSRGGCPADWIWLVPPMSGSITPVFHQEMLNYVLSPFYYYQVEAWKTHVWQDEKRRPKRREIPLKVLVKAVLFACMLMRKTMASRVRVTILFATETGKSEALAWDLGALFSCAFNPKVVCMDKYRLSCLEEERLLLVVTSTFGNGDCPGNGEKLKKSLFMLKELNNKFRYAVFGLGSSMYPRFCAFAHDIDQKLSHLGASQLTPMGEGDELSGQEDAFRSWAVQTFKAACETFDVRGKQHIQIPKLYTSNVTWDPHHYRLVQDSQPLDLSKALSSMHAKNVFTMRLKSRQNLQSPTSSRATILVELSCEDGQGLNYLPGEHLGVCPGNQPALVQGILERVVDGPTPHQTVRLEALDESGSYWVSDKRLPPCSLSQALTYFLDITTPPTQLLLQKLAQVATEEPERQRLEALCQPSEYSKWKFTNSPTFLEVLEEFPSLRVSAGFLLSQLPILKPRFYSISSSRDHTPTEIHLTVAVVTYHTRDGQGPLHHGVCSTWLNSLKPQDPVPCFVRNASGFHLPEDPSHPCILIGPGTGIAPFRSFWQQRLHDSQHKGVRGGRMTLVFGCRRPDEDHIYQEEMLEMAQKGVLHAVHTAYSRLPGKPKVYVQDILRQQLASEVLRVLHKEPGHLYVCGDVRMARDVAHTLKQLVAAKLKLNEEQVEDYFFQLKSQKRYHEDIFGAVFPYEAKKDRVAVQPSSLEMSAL
Chain of Nitric oxide synthase 1 (P29475 whole entry): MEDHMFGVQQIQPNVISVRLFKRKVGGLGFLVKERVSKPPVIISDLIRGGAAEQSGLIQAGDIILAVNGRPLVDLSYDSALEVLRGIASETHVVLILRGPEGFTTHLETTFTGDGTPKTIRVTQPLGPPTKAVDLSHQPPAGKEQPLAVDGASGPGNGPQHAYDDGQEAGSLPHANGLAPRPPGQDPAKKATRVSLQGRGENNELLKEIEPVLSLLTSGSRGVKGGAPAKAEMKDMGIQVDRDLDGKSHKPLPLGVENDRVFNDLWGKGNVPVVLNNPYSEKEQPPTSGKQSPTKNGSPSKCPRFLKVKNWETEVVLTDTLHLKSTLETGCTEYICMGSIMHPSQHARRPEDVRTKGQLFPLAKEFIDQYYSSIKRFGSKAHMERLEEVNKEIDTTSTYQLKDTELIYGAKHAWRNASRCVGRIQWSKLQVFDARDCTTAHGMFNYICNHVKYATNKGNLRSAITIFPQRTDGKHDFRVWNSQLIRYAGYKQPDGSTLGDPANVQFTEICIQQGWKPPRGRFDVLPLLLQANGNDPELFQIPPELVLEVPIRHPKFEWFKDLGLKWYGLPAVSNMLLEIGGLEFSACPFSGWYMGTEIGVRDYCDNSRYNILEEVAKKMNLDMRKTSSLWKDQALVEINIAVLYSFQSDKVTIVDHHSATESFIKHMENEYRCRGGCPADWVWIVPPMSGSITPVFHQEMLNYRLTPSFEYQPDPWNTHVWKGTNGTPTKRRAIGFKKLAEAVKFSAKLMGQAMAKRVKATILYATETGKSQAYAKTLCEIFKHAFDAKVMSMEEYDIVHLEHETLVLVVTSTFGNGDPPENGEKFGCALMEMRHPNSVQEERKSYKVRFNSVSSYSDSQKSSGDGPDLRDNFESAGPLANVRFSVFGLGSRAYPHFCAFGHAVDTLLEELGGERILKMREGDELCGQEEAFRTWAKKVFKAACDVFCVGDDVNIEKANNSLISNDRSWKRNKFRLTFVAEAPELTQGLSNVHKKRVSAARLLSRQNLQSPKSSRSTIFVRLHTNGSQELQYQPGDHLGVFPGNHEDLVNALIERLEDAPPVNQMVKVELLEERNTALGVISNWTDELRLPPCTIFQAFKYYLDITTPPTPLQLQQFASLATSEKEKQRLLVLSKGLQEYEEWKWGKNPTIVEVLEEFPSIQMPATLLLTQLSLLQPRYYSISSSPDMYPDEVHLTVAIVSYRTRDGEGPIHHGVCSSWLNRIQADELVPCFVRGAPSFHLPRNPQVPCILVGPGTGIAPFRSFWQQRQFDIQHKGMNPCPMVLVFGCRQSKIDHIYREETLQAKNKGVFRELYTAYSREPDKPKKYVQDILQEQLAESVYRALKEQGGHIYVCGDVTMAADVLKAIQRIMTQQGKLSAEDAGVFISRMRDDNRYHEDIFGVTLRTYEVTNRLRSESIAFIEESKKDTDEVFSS
Chain of Cytochrome P450 2C9 (P11712 whole entry): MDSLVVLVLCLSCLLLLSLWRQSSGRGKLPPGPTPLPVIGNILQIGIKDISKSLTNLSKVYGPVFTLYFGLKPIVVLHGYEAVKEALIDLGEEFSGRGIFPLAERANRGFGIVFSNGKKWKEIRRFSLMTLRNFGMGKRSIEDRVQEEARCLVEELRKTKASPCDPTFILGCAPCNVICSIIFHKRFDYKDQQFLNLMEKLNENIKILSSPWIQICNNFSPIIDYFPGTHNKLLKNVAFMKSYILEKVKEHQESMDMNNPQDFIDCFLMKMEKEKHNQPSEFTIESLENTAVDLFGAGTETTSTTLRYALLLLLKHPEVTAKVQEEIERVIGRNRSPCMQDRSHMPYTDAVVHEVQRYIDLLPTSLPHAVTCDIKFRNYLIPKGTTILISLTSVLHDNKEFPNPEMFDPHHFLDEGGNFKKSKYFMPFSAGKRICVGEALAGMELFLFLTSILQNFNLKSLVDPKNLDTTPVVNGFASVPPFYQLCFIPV

| SMILES | IC50 (Nitric oxide synthase 3) | IC50 (Nitric oxide synthase 1) | IC50 [1] | further results |
| --- | --- | --- | --- | --- |
| COc1ccnc(CCc2nc3cc(-c4ccccc4)cnc3[nH]2)c1 | 18.2 µM | 1.2 µM |  |  |
| COc1ccnc(CCc2nc3c(C)cc(C)nc3[nH]2)c1 | > 100 µM | 12.6 µM | 2.29 µM |  |
| COc1ccnc(CSc2nc3cccnc3[nH]2)c1 | 53.7 µM | 3.39 µM | 0.115 µM |  |
| COc1ccnc(CCc2nc3c(OCCc4ccccc4)ccnc3[nH]2)c1 | 66.1 µM | 13.8 µM | 0.724 µM |  |
| COc1ccnc(CSc2nc3ccccc3[nH]2)c1 | 26.3 µM | 26.9 µM | 10.7 µM |  |
| COc1ccnc(CCc2nc3cc(Br)cnc3[nH]2)c1 | 87.1 µM | 8.32 µM | 0.186 µM |  |
| COc1cnc(CSC)cc1OC | > 100 µM | > 100 µM | > 100 µM |  |
| COc1ccnc(CSC)c1 | 1.07 µM | 0.447 µM | 0.155 µM |  |
| CC(=N)NCCCC[C@H](N)C(=O)O [L-NIL] | > 100 µM |  | 4.68 µM |  |
| CC(=N)NCCCC[C@H](N)C(=O)Nc1nnn[nH]1 | > 100 µM | > 100 µM | > 100 µM |  |
| COc1ccnc(NC2CCN(C(=O)c3ccc(C#N)nc3)CC2)c1 | > 100 µM | 6.61 µM | 0.0708 µM |  |
| COc1ccnc(CCc2nc3c(OC)ccnc3[nH]2)c1 | 204 µM | 58.9 µM | 0.776 µM |  |
| COc1ccnc(CCc2nc3ccc(OC)nc3[nH]2)c1 | 100 µM | 26.3 µM | 0.38 µM |  |
| C[C@H]1CC(=N)N[C@@H]2[C@H](Cl)[C@@H]21 |  |  |  | Ki (Nitric oxide synthase 3): 0.0186 µM; Ki [1]: 0.00186 µM |
| COc1ccnc(CCc2nc3cccnc3[nH]2)c1 |  |  |  | pIC50 [2]: < 4; Activity [3]: Active |
| COc1ccnc(CSC)c1OC | > 100 µM | > 100 µM | > 100 µM |  |
| COc1ccnc(CSc2nc3ccncc3[nH]2)c1 | > 100 µM | > 100 µM | 49 µM |  |
| CCCCc1cnc2[nH]c(CCc3cc(OC)ccn3)nc2c1 | 87.1 µM | 1.91 µM | 0.055 µM |  |
| COCCOc1ccnc2[nH]c(CCc3cc(OC)ccn3)nc12 | 204 µM | 123 µM | 0.513 µM |  |
| COc1ccnc(CCc2nc3c(C)ccnc3[nH]2)c1 | 45.7 µM | 18.6 µM | 0.145 µM |  |
| COc1ccnc(CCc2nc3ncccc3[nH]2)c1 | 112 µM | 13.8 µM |  | IC50 (Cytochrome P450 2C9): 3.16 µM; bioavailability [4]: 48%; Cmax [5]: 2240 ng/mL; clearance [6]: 36.8 mL/min/kg |
